# Test system: southern crabgrass
# Test: Test Example 5: herbicidal effect by foliage application, plastic box (Table 20, symbol F)
# Type: in vivo, southern crabgrass (Digitaria ciliaris)
# Conditions: foliage application, 320 g/ha, three weeks after application
# Method in brief: (§1)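 Plants were sown into sterilized diluvial soil under about 1.5 cm cover and kept in a greenhouse at 25° C. to 30° C. Fourteen days on, foliage received an even spray of the diluted emulsion. Herbicidal or crop effect was judged three weeks afterwards.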
row,SMILES,herbicidal effect on southern crabgrass (F)
1,CCCC(=O)Oc1c(C)nn(C)c(=O)c1-c1c(-c2ccc(F)cc2)sc2cc(OC)c(OC)cc12 [5-058],0 (Herbicidal rate of 5% or less (almost no effect))
2,COc1cc2sc(-c3ccc(F)cc3)c(-c3c(O)c(C)nn(C)c3=O)c2cc1Cl [5-067],0 (Herbicidal rate of 5% or less (almost no effect))

# Test system: barnyard grass
# Test: Test Example 3: herbicidal effect by foliage application, Wagner pot (Table 18, symbol H)
# Type: in vivo, barnyard grass (Echinochloa crus-galli)
# Conditions: 320 g/ha
# Method in brief: (§2)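 Plants were sown in alluvial soil held under 0.1–0.5 cm standing water and grown 14 days in a greenhouse at 25–30 °C. An emulsifiable formulation, water-diluted to the set dose, was then sprayed onto the foliage, and effects were scored three weeks later using previously defined criteria.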
row,SMILES,herbicidal effect on barnyard grass (H)
1,CCCC(=O)Oc1c(C)nn(C)c(=O)c1-c1c(-c2ccc(F)cc2)sc2cc(OC)c(OC)cc12 [5-058],0 (Herbicidal rate of 5% or less (almost no effect))
2,COc1cc2sc(-c3ccc(F)cc3)c(-c3c(O)c(C)nn(C)c3=O)c2cc1Cl [5-067],3 (Herbicidal rate of 40% or more and less than 70%)

# Test system: persian speedwell
# Test: Test Example 5: herbicidal effect by foliage application, plastic box (Table 20, symbol R)
# Type: in vivo, Persian speedwell (Veronica persica)
# Conditions: foliage application, 320 g/ha, three weeks after application
# Method in brief: as §1
row,SMILES,herbicidal effect on persian speedwell (R)
1,CCCC(=O)Oc1c(C)nn(C)c(=O)c1-c1c(-c2ccc(F)cc2)sc2cc(OC)c(OC)cc12 [5-058],0 (Herbicidal rate of 5% or less (almost no effect))
2,COc1cc2sc(-c3ccc(F)cc3)c(-c3c(O)c(C)nn(C)c3=O)c2cc1Cl [5-067],4 (Herbicidal rate of 70% or more and less than 90%)

# Test system: rice flat sedge
# Test: Test Example 3: herbicidal effect by foliage application, Wagner pot (Table 18, symbol E)
# Type: in vivo, rice flat sedge (Cyperus iria)
# Conditions: 320 g/ha
# Method in brief: as §2
row,SMILES,herbicidal effect on rice flat sedge (E)
1,CCCC(=O)Oc1c(C)nn(C)c(=O)c1-c1c(-c2ccc(F)cc2)sc2cc(OC)c(OC)cc12 [5-058],3 (Herbicidal rate of 40% or more and less than 70%)
2,COc1cc2sc(-c3ccc(F)cc3)c(-c3c(O)c(C)nn(C)c3=O)c2cc1Cl [5-067],4 (Herbicidal rate of 70% or more and less than 90%)

# Test system: windgrass
# Test: Test Example 5: herbicidal effect by foliage application, plastic box (Table 20, symbol L)
# Type: in vivo, windgrass (Apera spica-venti)
# Conditions: foliage application, 320 g/ha, three weeks after application
# From the text: (§3) [Test Example 5] Herbicidal Effect Test by Foliage Application
# (§4) Sterilized diluvial soil was placed in a plastic box having a length of 21 cm, a width of 13 cm, and a depth of 7 cm. The seeds of each of southern crabgrass, green foxtail, barnyard grass, wild oat, blackgrass, Italian ryegrass, windgrass, velvetleaf, redroot pigweed, lambsquarters, chickweed, false cleavers, persian speedwell, corn, soybean, rice, wheat, beet, and rapeseed were sowed in a spot-like manner and covered with the soil having a thickness of about 1.5 cm. Thereafter, the plants were grown in a greenhouse at 25° C. to 30° C. After 14-day growth of the plants, the emulsion agent of the compound of the present invention prepared according to Formulation Example 2 was diluted with water so as to achieve a predetermined herbicide amount, and the diluted emulsion agent was uniformly applied to a foliage part with a small-sized spray. Three weeks after the herbicide application, the effect of the herbicide on each plant was evaluated according to the criteria of Test Example 1.
row,SMILES,herbicidal effect on windgrass (L)
1,CCCC(=O)Oc1c(C)nn(C)c(=O)c1-c1c(-c2ccc(F)cc2)sc2cc(OC)c(OC)cc12 [5-058],0 (Herbicidal rate of 5% or less (almost no effect))
2,COc1cc2sc(-c3ccc(F)cc3)c(-c3c(O)c(C)nn(C)c3=O)c2cc1Cl [5-067],1 (Herbicidal rate of 5% or more and less than 20%)

# Test system: barnyard grass
# Test: Test Example 5: herbicidal effect by foliage application, plastic box (Table 20, symbol H)
# Type: in vivo, barnyard grass (Echinochloa crus-galli)
# Conditions: foliage application, 320 g/ha, three weeks after application
# Method in brief: as §1
row,SMILES,herbicidal effect on barnyard grass (H)
1,CCCC(=O)Oc1c(C)nn(C)c(=O)c1-c1c(-c2ccc(F)cc2)sc2cc(OC)c(OC)cc12 [5-058],0 (Herbicidal rate of 5% or less (almost no effect))
2,COc1cc2sc(-c3ccc(F)cc3)c(-c3c(O)c(C)nn(C)c3=O)c2cc1Cl [5-067],0 (Herbicidal rate of 5% or less (almost no effect))

# Test system: green foxtail
# Test: Test Example 5: herbicidal effect by foliage application, plastic box (Table 20, symbol G)
# Type: in vivo, green foxtail (Setaria viridis)
# Conditions: foliage application, 320 g/ha, three weeks after application
# From the text: as §3, §4
row,SMILES,herbicidal effect on green foxtail (G)
1,CCCC(=O)Oc1c(C)nn(C)c(=O)c1-c1c(-c2ccc(F)cc2)sc2cc(OC)c(OC)cc12 [5-058],0 (Herbicidal rate of 5% or less (almost no effect))
2,COc1cc2sc(-c3ccc(F)cc3)c(-c3c(O)c(C)nn(C)c3=O)c2cc1Cl [5-067],0 (Herbicidal rate of 5% or less (almost no effect))

# Test system: blackgrass
# Test: Test Example 5: herbicidal effect by foliage application, plastic box (Table 20, symbol J)
# Type: in vivo, blackgrass (Alopecurus myosuroides)
# Conditions: foliage application, 320 g/ha, three weeks after application
# Method in brief: as §1
row,SMILES,herbicidal effect on blackgrass (J)
1,CCCC(=O)Oc1c(C)nn(C)c(=O)c1-c1c(-c2ccc(F)cc2)sc2cc(OC)c(OC)cc12 [5-058],0 (Herbicidal rate of 5% or less (almost no effect))
2,COc1cc2sc(-c3ccc(F)cc3)c(-c3c(O)c(C)nn(C)c3=O)c2cc1Cl [5-067],1 (Herbicidal rate of 5% or more and less than 20%)

# Test system: wild oat
# Test: Test Example 5: herbicidal effect by foliage application, plastic box (Table 20, symbol I)
# Type: in vivo, wild oat (Avena fatua)
# Conditions: foliage application, 320 g/ha, three weeks after application
# From the text: as §3, §4
row,SMILES,herbicidal effect on wild oat (I)
1,CCCC(=O)Oc1c(C)nn(C)c(=O)c1-c1c(-c2ccc(F)cc2)sc2cc(OC)c(OC)cc12 [5-058],0 (Herbicidal rate of 5% or less (almost no effect))
2,COc1cc2sc(-c3ccc(F)cc3)c(-c3c(O)c(C)nn(C)c3=O)c2cc1Cl [5-067],0 (Herbicidal rate of 5% or less (almost no effect))

# Test system: velvetleaf
# Test: Test Example 5: herbicidal effect by foliage application, plastic box (Table 20, symbol M)
# Type: in vivo, velvetleaf (Abutilon theophrasti)
# Conditions: foliage application, 320 g/ha, three weeks after application
# Method in brief: as §1
row,SMILES,herbicidal effect on velvetleaf (M)
1,CCCC(=O)Oc1c(C)nn(C)c(=O)c1-c1c(-c2ccc(F)cc2)sc2cc(OC)c(OC)cc12 [5-058],0 (Herbicidal rate of 5% or less (almost no effect))
2,COc1cc2sc(-c3ccc(F)cc3)c(-c3c(O)c(C)nn(C)c3=O)c2cc1Cl [5-067],0 (Herbicidal rate of 5% or less (almost no effect))

# Test system: Italian ryegrass
# Test: Test Example 5: herbicidal effect by foliage application, plastic box (Table 20, symbol K)
# Type: in vivo, Italian ryegrass (Lolium multiflorum)
# Conditions: foliage application, 320 g/ha, three weeks after application
# Method in brief: as §1
row,SMILES,herbicidal effect on Italian ryegrass (K)
1,CCCC(=O)Oc1c(C)nn(C)c(=O)c1-c1c(-c2ccc(F)cc2)sc2cc(OC)c(OC)cc12 [5-058],1 (Herbicidal rate of 5% or more and less than 20%)
2,COc1cc2sc(-c3ccc(F)cc3)c(-c3c(O)c(C)nn(C)c3=O)c2cc1Cl [5-067],0 (Herbicidal rate of 5% or less (almost no effect))

# Test system: Chinese sprangletop
# Test: Test Example 3: herbicidal effect by foliage application, Wagner pot (Table 18, symbol D)
# Type: in vivo, chinese sprangletop (Leptochloa chinensis)
# Conditions: 320 g/ha
# Description: [Test Example 3] Herbicidal Effect Test by Foliage Application After alluvial soil was placed into 1/10000 are of Wagner pot, water was poured and mixed to form a submerged condition having a water depth of 0.1 cm to 0.5 cm. Seeds of barnyard grass, Chinese sprangletop, rice flat sedge, and rice were sowed and the pot was placed in a greenhouse at 25° C. to 30° C. for growth of the plants. After 14-day growth of the plants, the emulsion agent of the compound of the present invention prepared according to Formulation Example 2 was diluted with water so as to achieve a predetermined herbicide amount, and the diluted emulsion agent was uniformly applied to a foliage part with a small-sized spray. Three weeks after the herbicide application, the effect of the herbicide on each plant was evaluated according to the criteria of Test Example 1.
row,SMILES,herbicidal effect on Chinese sprangletop (D)
1,CCCC(=O)Oc1c(C)nn(C)c(=O)c1-c1c(-c2ccc(F)cc2)sc2cc(OC)c(OC)cc12 [5-058],0 (Herbicidal rate of 5% or less (almost no effect))
2,COc1cc2sc(-c3ccc(F)cc3)c(-c3c(O)c(C)nn(C)c3=O)c2cc1Cl [5-067],5 (Herbicidal rate of 90% or more (almost completely withered))

# Test system: lambsquarters
# Test: Test Example 5: herbicidal effect by foliage application, plastic box (Table 20, symbol O)
# Type: in vivo, lambsquarters (Chenopodium album)
# Conditions: foliage application, 320 g/ha, three weeks after application
# From the text: as §3, §4
row,SMILES,herbicidal effect on lambsquarters (O)
1,CCCC(=O)Oc1c(C)nn(C)c(=O)c1-c1c(-c2ccc(F)cc2)sc2cc(OC)c(OC)cc12 [5-058],0 (Herbicidal rate of 5% or less (almost no effect))
2,COc1cc2sc(-c3ccc(F)cc3)c(-c3c(O)c(C)nn(C)c3=O)c2cc1Cl [5-067],3 (Herbicidal rate of 40% or more and less than 70%)
